# In PubChem BioAssay (NCI):
#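 Where inhibition never reached the appropriate level, the endpoint shown equals the highest concentration tested. Otherwise, values were interpolated linearly from a five-concentration, 48-hour dose response in 96-well plates. The concentration for 50% growth inhibition is given as GI50. TGI: concentration producing complete growth inhibition.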
# What was measured:
# Test in all cases: NCI tumour cell line growth inhibition, 48 h
# CAKI-1 renal = system: CAKI-1 renal
# SK-MEL-2 melanoma = system: SK-MEL-2 melanoma
# LOX IMVI melanoma = system: LOX IMVI melanoma
# HOP-92 NSCLC = system: HOP-92 NSCLC
# OVCAR-5 ovarian = system: OVCAR-5 ovarian
# NCI/ADR-RES ovarian = system: NCI/ADR-RES ovarian
# MDA-MB-435 = system: MDA-MB-435
# A549 NSCLC = system: A549 NSCLC
# UACC-257 melanoma = system: UACC-257 melanoma
# A498 renal = system: A498 renal
# T-47D breast = system: T-47D breast
# HL-60(TB) leukemia = system: HL-60(TB) leukemia
# EKVX NSCLC = system: EKVX NSCLC
# OVCAR-4 ovarian = system: OVCAR-4 ovarian
# COLO 205 colon = system: COLO 205 colon
# CCRF-CEM leukemia = system: CCRF-CEM leukemia
# RXF 393 renal = system: RXF 393 renal
# SK-MEL-5 melanoma = system: SK-MEL-5 melanoma
# NCI-H226 lung = system: NCI-H226 lung
# MALME-3M melanoma = system: MALME-3M melanoma
# HCT-116 colon = system: HCT-116 colon
# NCI-H522 lung = system: NCI-H522 lung
# IGROV1 ovarian = system: IGROV1 ovarian
# UO-31 renal = system: UO-31 renal
# RPMI-8226 leukemia = system: RPMI-8226 leukemia
# MDA-MB-231 breast = system: MDA-MB-231 breast
# OVCAR-3 ovarian = system: OVCAR-3 ovarian
# HT29 colon = system: HT29 colon
# UACC-62 melanoma = system: UACC-62 melanoma
# PC-3 prostate = system: PC-3 prostate
# KM12 colon = system: KM12 colon
# SNB-19 CNS = system: SNB-19 CNS
# SN12C renal = system: SN12C renal
# 786-0 renal = system: 786-0 renal
# SK-MEL-28 melanoma = system: SK-MEL-28 melanoma
# MCF7 breast = system: MCF7 breast
# SK-OV-3 ovarian = system: SK-OV-3 ovarian
# U251 CNS = system: U251 CNS
# HS 578T breast = system: HS 578T breast
# OVCAR-8 ovarian = system: OVCAR-8 ovarian
# HCC-2998 colon = system: HCC-2998 colon
# SF-539 CNS = system: SF-539 CNS
# BT-549 breast = system: BT-549 breast
# M14 melanoma = system: M14 melanoma
# SF-268 CNS = system: SF-268 CNS
# MOLT-4 leukemia = system: MOLT-4 leukemia
# SNB-75 CNS = system: SNB-75 CNS
# DU-145 prostate = system: DU-145 prostate
# HOP-62 NSCLC = system: HOP-62 NSCLC
# TK-10 renal = system: TK-10 renal
# NCI-H460 lung = system: NCI-H460 lung
# K-562 leukemia = system: K-562 leukemia
# SF-295 CNS = system: SF-295 CNS
# SR leukemia = system: SR leukemia
# HCT-15 colon = system: HCT-15 colon
# ACHN renal = system: ACHN renal
# SW-620 colon = system: SW-620 colon
structure (smiles),measurement,setting,value
CN1CCN(Cc2ccc(NC(=O)c3cncc(C#Cc4cnc(N)nc4)c3)cc2C(F)(F)F)CC1,GI50,CAKI-1 renal,0.15 µM
same,TGI,CAKI-1 renal,0.763 µM
same,GI50,SK-MEL-2 melanoma,0.11 µM
same,TGI,SK-MEL-2 melanoma,0.339 µM
same,GI50,LOX IMVI melanoma,0.189 µM
same,TGI,LOX IMVI melanoma,0.846 µM
same,GI50,HOP-92 NSCLC,0.157 µM
same,TGI,HOP-92 NSCLC,1.23 µM
same,GI50,OVCAR-5 ovarian,0.994 µM
same,TGI,OVCAR-5 ovarian,9.76 µM
same,GI50,NCI/ADR-RES ovarian,3.56 µM
same,TGI,NCI/ADR-RES ovarian,19.9 µM
same,GI50,MDA-MB-435,0.247 µM
same,TGI,MDA-MB-435,5.56 µM
same,GI50,A549 NSCLC,1.01 µM
same,TGI,A549 NSCLC,8.74 µM
same,GI50,UACC-257 melanoma,0.773 µM
same,TGI,UACC-257 melanoma,6.12 µM
same,GI50,A498 renal,0.228 µM
same,TGI,A498 renal,1.14 µM
same,GI50,T-47D breast,0.916 µM
same,TGI,T-47D breast,50 µM
same,GI50,HL-60(TB) leukemia,0.283 µM
same,TGI,HL-60(TB) leukemia,3.59 µM
same,GI50,EKVX NSCLC,1.2 µM
same,TGI,EKVX NSCLC,14.6 µM
same,GI50,OVCAR-4 ovarian,0.553 µM
same,TGI,OVCAR-4 ovarian,9.75 µM
same,GI50,COLO 205 colon,0.398 µM
same,TGI,COLO 205 colon,5.61 µM
same,GI50,CCRF-CEM leukemia,1.16 µM
same,TGI,CCRF-CEM leukemia,16 µM
same,GI50,RXF 393 renal,0.346 µM
same,TGI,RXF 393 renal,4.18 µM
same,GI50,SK-MEL-5 melanoma,1.18 µM
same,TGI,SK-MEL-5 melanoma,5.7 µM
same,GI50,NCI-H226 lung,0.203 µM
same,TGI,NCI-H226 lung,2.22 µM
same,GI50,MALME-3M melanoma,0.15 µM
same,TGI,MALME-3M melanoma,0.653 µM
same,GI50,HCT-116 colon,0.231 µM
same,TGI,HCT-116 colon,5.16 µM
same,GI50,NCI-H522 lung,0.376 µM
same,TGI,NCI-H522 lung,6.93 µM
same,GI50,IGROV1 ovarian,0.189 µM
same,TGI,IGROV1 ovarian,5.21 µM
same,GI50,UO-31 renal,0.396 µM
same,TGI,UO-31 renal,2.88 µM
same,GI50,RPMI-8226 leukemia,0.66 µM
same,TGI,RPMI-8226 leukemia,6.43 µM
same,GI50,MDA-MB-231 breast,0.258 µM
same,TGI,MDA-MB-231 breast,3.46 µM
same,GI50,OVCAR-3 ovarian,0.957 µM
same,TGI,OVCAR-3 ovarian,10.1 µM
same,GI50,HT29 colon,0.351 µM
same,TGI,HT29 colon,6.01 µM
same,GI50,UACC-62 melanoma,0.298 µM
same,TGI,UACC-62 melanoma,3.39 µM
same,GI50,PC-3 prostate,0.821 µM
same,TGI,PC-3 prostate,17.2 µM
same,GI50,KM12 colon,0.0521 µM
same,TGI,KM12 colon,7.27 µM
same,GI50,SNB-19 CNS,4.38 µM
same,TGI,SNB-19 CNS,27.6 µM
same,GI50,SN12C renal,0.332 µM
same,TGI,SN12C renal,5.74 µM
same,GI50,786-0 renal,0.849 µM
same,TGI,786-0 renal,5.79 µM
same,GI50,SK-MEL-28 melanoma,0.56 µM
same,TGI,SK-MEL-28 melanoma,3.54 µM
same,GI50,MCF7 breast,1.47 µM
same,TGI,MCF7 breast,11.6 µM
same,GI50,SK-OV-3 ovarian,0.174 µM
same,TGI,SK-OV-3 ovarian,1.12 µM
same,GI50,U251 CNS,0.521 µM
same,TGI,U251 CNS,9.28 µM
same,GI50,HS 578T breast,0.331 µM
same,TGI,HS 578T breast,2.29 µM
same,GI50,OVCAR-8 ovarian,1.07 µM
same,TGI,OVCAR-8 ovarian,9.57 µM
same,GI50,HCC-2998 colon,1.35 µM
same,TGI,HCC-2998 colon,9.53 µM
same,GI50,SF-539 CNS,0.263 µM
same,TGI,SF-539 CNS,3.78 µM
same,GI50,BT-549 breast,1.24 µM
same,TGI,BT-549 breast,5.47 µM
same,GI50,M14 melanoma,0.178 µM
same,TGI,M14 melanoma,1.28 µM
same,GI50,SF-268 CNS,0.93 µM
same,TGI,SF-268 CNS,8.72 µM
same,GI50,MOLT-4 leukemia,0.449 µM
same,TGI,MOLT-4 leukemia,11.6 µM
same,GI50,SNB-75 CNS,0.123 µM
same,TGI,SNB-75 CNS,1 µM
same,GI50,DU-145 prostate,0.385 µM
same,TGI,DU-145 prostate,11.4 µM
same,GI50,HOP-62 NSCLC,0.952 µM
same,TGI,HOP-62 NSCLC,6.43 µM
same,GI50,TK-10 renal,0.81 µM
same,TGI,TK-10 renal,7.17 µM
same,GI50,NCI-H460 lung,0.306 µM
same,TGI,NCI-H460 lung,6.23 µM
same,GI50,K-562 leukemia,0.005 µM
same,TGI,K-562 leukemia,50 µM
same,GI50,SF-295 CNS,1.43 µM
same,TGI,SF-295 CNS,9.22 µM
same,GI50,SR leukemia,0.425 µM
same,TGI,SR leukemia,8.48 µM
same,GI50,HCT-15 colon,0.556 µM
same,TGI,HCT-15 colon,12.9 µM
same,GI50,ACHN renal,0.244 µM
same,TGI,ACHN renal,5.23 µM
same,GI50,SW-620 colon,0.49 µM
same,TGI,SW-620 colon,6.41 µM
C#Cc1nc(/C=C/CCCCCCC(=O)NO)cs1,GI50,SK-MEL-2 melanoma,20.6 µM
same,TGI,SK-MEL-2 melanoma,85.5 µM
same,GI50,LOX IMVI melanoma,0.185 µM
same,TGI,LOX IMVI melanoma,0.352 µM
same,GI50,HOP-92 NSCLC,1.18 µM
same,TGI,HOP-92 NSCLC,2.76 µM
same,GI50,OVCAR-5 ovarian,3.07 µM
same,TGI,OVCAR-5 ovarian,> 100 µM
same,GI50,NCI/ADR-RES ovarian,2.15 µM
same,TGI,NCI/ADR-RES ovarian,13.6 µM
same,GI50,MDA-MB-435,5.67 µM
same,TGI,MDA-MB-435,> 100 µM
same,GI50,A549 NSCLC,6.23 µM
same,TGI,A549 NSCLC,> 100 µM
same,GI50,UACC-257 melanoma,3.39 µM
same,TGI,UACC-257 melanoma,> 100 µM
same,GI50,A498 renal,3.7 µM
same,TGI,A498 renal,16.8 µM
same,GI50,T-47D breast,3.08 µM
same,TGI,T-47D breast,33.8 µM
same,GI50,EKVX NSCLC,22.7 µM
same,TGI,EKVX NSCLC,> 100 µM
same,GI50,OVCAR-4 ovarian,2.31 µM
same,TGI,OVCAR-4 ovarian,6.34 µM
same,GI50,COLO 205 colon,4.73 µM
same,TGI,COLO 205 colon,18 µM
same,GI50,SK-MEL-5 melanoma,4.81 µM
same,TGI,SK-MEL-5 melanoma,17.4 µM
same,GI50,NCI-H226 lung,13.3 µM
same,TGI,NCI-H226 lung,53.6 µM
same,GI50,MALME-3M melanoma,1.53 µM
same,TGI,MALME-3M melanoma,3.12 µM
same,GI50,HCT-116 colon,2.7 µM
same,TGI,HCT-116 colon,10.5 µM
same,GI50,NCI-H522 lung,3.05 µM
same,TGI,NCI-H522 lung,17.9 µM
same,GI50,IGROV1 ovarian,1.63 µM
same,TGI,IGROV1 ovarian,3.38 µM
same,GI50,RPMI-8226 leukemia,1.41 µM
same,TGI,RPMI-8226 leukemia,5.21 µM
same,GI50,MDA-MB-231 breast,2.25 µM
same,TGI,MDA-MB-231 breast,5.13 µM
same,GI50,HT29 colon,4.26 µM
same,TGI,HT29 colon,31.4 µM
same,GI50,UACC-62 melanoma,3.1 µM
same,TGI,UACC-62 melanoma,15 µM
same,GI50,PC-3 prostate,5.27 µM
same,TGI,PC-3 prostate,> 100 µM
same,GI50,KM12 colon,5.32 µM
same,TGI,KM12 colon,42.6 µM
same,GI50,SNB-19 CNS,16 µM
same,TGI,SNB-19 CNS,> 100 µM
same,GI50,SN12C renal,7.84 µM
same,TGI,SN12C renal,> 100 µM
same,GI50,786-0 renal,6.72 µM
same,TGI,786-0 renal,47.7 µM
same,GI50,SK-MEL-28 melanoma,9.61 µM
same,TGI,SK-MEL-28 melanoma,94.7 µM
same,GI50,MCF7 breast,5.03 µM
same,TGI,MCF7 breast,> 100 µM
same,GI50,SK-OV-3 ovarian,5.12 µM
same,TGI,SK-OV-3 ovarian,28.3 µM
same,GI50,U251 CNS,3.47 µM
same,TGI,U251 CNS,18.6 µM
same,GI50,HS 578T breast,3.59 µM
same,TGI,HS 578T breast,76.3 µM
same,GI50,OVCAR-8 ovarian,3.45 µM
same,TGI,OVCAR-8 ovarian,> 100 µM
same,GI50,HCC-2998 colon,11.6 µM
same,TGI,HCC-2998 colon,36.9 µM
same,GI50,SF-539 CNS,1.59 µM
same,TGI,SF-539 CNS,3.05 µM
same,GI50,BT-549 breast,4.05 µM
same,TGI,BT-549 breast,49.5 µM
same,GI50,M14 melanoma,5.18 µM
same,TGI,M14 melanoma,61.4 µM
same,GI50,SF-268 CNS,3.89 µM
same,TGI,SF-268 CNS,14.9 µM
same,GI50,SNB-75 CNS,1.74 µM
same,TGI,SNB-75 CNS,9.61 µM
same,GI50,DU-145 prostate,3.01 µM
same,TGI,DU-145 prostate,> 100 µM
same,GI50,HOP-62 NSCLC,5.47 µM
same,TGI,HOP-62 NSCLC,58.7 µM
same,GI50,TK-10 renal,2.29 µM
same,TGI,TK-10 renal,16.3 µM
same,GI50,NCI-H460 lung,4.16 µM
same,TGI,NCI-H460 lung,> 100 µM
same,GI50,K-562 leukemia,2.95 µM
same,TGI,K-562 leukemia,> 100 µM
same,GI50,SF-295 CNS,5.52 µM
same,TGI,SF-295 CNS,19.3 µM
same,GI50,HCT-15 colon,7.53 µM
same,TGI,HCT-15 colon,> 100 µM
same,GI50,SW-620 colon,2.14 µM
same,TGI,SW-620 colon,4.9 µM
